# Results: US10961187B2, “Substituted N-acetyl-L-cysteine derivatives and related compounds” (Promentis Pharmaceuticals, Inc., priority 2013, dated 2021)
# Experiments:
# [1] = target: T1, System xc− (Homo sapiens, UniProt Q9UPY5); experiment: 14C-cystine uptake in human glial cells from brain astrocytoma (1321N1); assay type: cell-based; conditions: 1321N1 cells
# T1 construct: in vitro culture system of human glial cells from brain astrocytoma (1321N1); endogenous in cells; host or cells: 1321N1 human astrocytoma cells
# T1 sequence (Q9UPY5 1-501): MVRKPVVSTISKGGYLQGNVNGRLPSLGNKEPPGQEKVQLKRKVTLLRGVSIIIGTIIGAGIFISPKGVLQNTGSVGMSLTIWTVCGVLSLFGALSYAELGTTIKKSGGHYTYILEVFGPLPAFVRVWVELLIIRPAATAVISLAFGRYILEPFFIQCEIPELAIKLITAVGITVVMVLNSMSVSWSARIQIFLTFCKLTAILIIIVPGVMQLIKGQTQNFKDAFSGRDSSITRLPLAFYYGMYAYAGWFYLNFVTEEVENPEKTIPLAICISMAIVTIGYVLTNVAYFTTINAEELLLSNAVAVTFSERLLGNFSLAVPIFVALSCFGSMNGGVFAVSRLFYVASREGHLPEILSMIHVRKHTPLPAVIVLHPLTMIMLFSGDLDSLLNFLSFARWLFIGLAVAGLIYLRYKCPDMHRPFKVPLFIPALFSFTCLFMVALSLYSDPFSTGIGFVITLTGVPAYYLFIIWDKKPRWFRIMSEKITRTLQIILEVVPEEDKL
# T1 sequence (P08195 1-529 partner): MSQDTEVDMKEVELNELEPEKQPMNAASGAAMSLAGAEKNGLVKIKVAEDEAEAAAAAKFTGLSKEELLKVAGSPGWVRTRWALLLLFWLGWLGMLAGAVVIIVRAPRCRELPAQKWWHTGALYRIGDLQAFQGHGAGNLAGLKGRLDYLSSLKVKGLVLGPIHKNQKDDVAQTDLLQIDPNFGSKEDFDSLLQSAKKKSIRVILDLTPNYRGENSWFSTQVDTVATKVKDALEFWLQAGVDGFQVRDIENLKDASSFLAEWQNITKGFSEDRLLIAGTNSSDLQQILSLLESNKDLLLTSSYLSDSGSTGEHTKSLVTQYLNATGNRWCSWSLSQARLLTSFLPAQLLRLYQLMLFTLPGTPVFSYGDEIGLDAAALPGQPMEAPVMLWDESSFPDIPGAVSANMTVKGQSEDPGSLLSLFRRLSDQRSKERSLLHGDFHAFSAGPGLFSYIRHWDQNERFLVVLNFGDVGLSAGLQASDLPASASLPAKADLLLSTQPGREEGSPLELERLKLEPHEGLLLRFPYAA
# Experimental: The goal of these experiments was to determine ^14C-cystine uptake.
# The screening of compounds was performed using an in vitro culture system of human glial cells from brain astrocytoma (1321N1). Cells were plated on 24 well plates coated with poly-D-lysine and laminin and grown in a balanced salt solution supplemented with 5% heat inactivated horse serum, 5% fetal bovine serum, 2 mM glutamine and glucose (total 21 mM). Cultures were maintained in humidified 5% CO2 incubators at 37° C. for 3-4 days before experiments were performed, at this time the cultures has formed a single confluent layer. For experiments, cultures were washed 3 times into a Na-free HEPES and HCO3^− buffered balanced salt solution. After 1 hour, the test compounds are added. Following a three hour incubation, ^14C-cystine (0.025 mCi/mL) was then added for 20 minutes. Following the ^14C-cystine exposure, cultures were washed 3 times with ice cold HEPES buffered saline solution and dissolved in 250 μl sodium dodecyl sulfate (0.1%). An aliquot (200 μl) was removed and added to scintillation fluid for counting. Values were normalized to ^14C-cystine uptake in untreated controls on the same experimental plate.
# [2] = target: T1, System xc−; experiment: 3H-glutamate release from human glial cells from brain astrocytoma (1321N1); assay type: cell-based; conditions: at 3 hours, 1321N1 cells
# Experimental: This assay also uses the cell culture system of human glial cells from brain astrocytoma (1321N1) described above. Initially, cells are washed with HBBSS, and ^3H-glutamate is added (PerkinElmer: 1 mCi/mL stock solution is diluted (30 μL+500 HBBSS) and 10 μL of diluted radiolabel is added to each well). Following a 1 hour incubation to load the cells with the labeled glutamate, the cells are washed again with HBBSS, and the drug is added. At 30, 90, and 180 minutes, 50 μL of extracellular media is sampled from each well and is measured using a Beckman LS 6500 scintillation counter.
# [3] = test system: Rats; experiment: Elevated-plus maze; assay type: in vivo; conditions: for time spent on the open arms: one hour prior to testing, five minute session
# Experimental: Rats were tested in a standard elevated plus maze; testing occurred in a dimly illuminated room using only two lights mounted over the maze. Animals were allowed to habituate to the room for at least one hour prior to treatment. One hour prior to testing, rats received a compound of the present invention (0-30 mg/kg, P.O.). For testing, the rat was placed in the elevated plus maze for five minutes, alternating the starting position between facing an open arm and facing a closed arm. The session was recorded and an observer blind to treatment recorded the number of explorations, entries and time spent in the open arm. Explorations were defined as the rat placing two feet into an open arm without fully entering said arm. Entries were defined as the rat placing all four feet in an open arm. Time of entry in the open arm was recorded from the time the rat placed four feet in the open arm until two of the rats' feet entered the open square.
# [4] = Brain levels of glutathione following oral administration; assay type: in vivo; conditions: C57BL/6 mice, 100 mg/kg oral, 4 hours; for glutathione in the brain: brain tissue
# Experimental: A compound of the invention was administered orally to C57BL/6 mice at either 10 or 100 mg/kg. Brain samples were collected at 0.25, 0.50, 1, 2 and 4 hours following the oral administration. Levels of NAC and glutathione were quantified in the brain samples using liquid chromatography-mass spectrometry (LC-MS/MS).
SMILES,"inhibition at 1000 µM ([1]; 1000 μM, three hour incubation, read-out: decrease (inhibition) in 14C-cystine uptake) [%]",increase in 3H-glutamate release ([2]; 300 μM),increase of time spent on the open arm ([3]; 10 or 30 mg/kg PO),time spent on the open arms ([3]; 10 or 30 mg/kg PO),"glutathione in the brain, times that of the vehicle [4]",glutathione in the brain [4],"decrease in 14C-cystine uptake ([1]; over the concentrations tested, dose-dependent)",increase in 3H-glutamate release ([2]; 100 μM),increase of time on the open arms over control ([3]; 10 mg/kg PO),time spent on the open arms ([3]; 10 mg/kg PO),"decrease in 14C-cystine uptake ([1]; 100 μM (most effective concentration), average of three experiments)"
"CC(=O)N[C@@H](CSC(=O)c1ccc(C)cc1)C(=O)O [Pro-2023, (2R)-2-Acetylamino-3-(4-methyl-benzoylsulfanyl)-propionic acid]",~45,approximately 135%,about 100%,around 27 seconds,about 2 times,about 200 nmol/g,–,–,–,–,–
"CCOC(=O)[C@H](CSC(=O)C1CSC(=O)N1)NC(C)=O (stereo partly drawn) [Pro-4047, Ethyl (2R)-2-acetamido-3-(2-oxo-1,3-thiazolidine-4-carbonylsulfanyl) propanoate]",–,–,–,–,–,–,20-60%,approximately 40%,not a significant increase over control,around 22 seconds,–
"CCOC(=O)[C@H](CSC(=O)c1ccc(C)cc1)NC(C)=O [Pro-4051, Ethyl (2R)-2-acetamido-3-(4-methylbenzoylsulfanyl)propanoate]",–,approximately 100%,–,–,about 1.05 times,about 1960 nmol/g,–,–,~150%,around 48 seconds,approximately 28%
